# In article PMC7841778 (ACS Omega, 2021):
# Assays:
# [1] = biological target: T1, human pancreatic α-amylase (HPA) (Homo sapiens, UniProt P04746); test: hydrolysis kinetics, KM; format: biochemical; conditions: read-out: KM ^b
# T1 sequence (P04746 16-511): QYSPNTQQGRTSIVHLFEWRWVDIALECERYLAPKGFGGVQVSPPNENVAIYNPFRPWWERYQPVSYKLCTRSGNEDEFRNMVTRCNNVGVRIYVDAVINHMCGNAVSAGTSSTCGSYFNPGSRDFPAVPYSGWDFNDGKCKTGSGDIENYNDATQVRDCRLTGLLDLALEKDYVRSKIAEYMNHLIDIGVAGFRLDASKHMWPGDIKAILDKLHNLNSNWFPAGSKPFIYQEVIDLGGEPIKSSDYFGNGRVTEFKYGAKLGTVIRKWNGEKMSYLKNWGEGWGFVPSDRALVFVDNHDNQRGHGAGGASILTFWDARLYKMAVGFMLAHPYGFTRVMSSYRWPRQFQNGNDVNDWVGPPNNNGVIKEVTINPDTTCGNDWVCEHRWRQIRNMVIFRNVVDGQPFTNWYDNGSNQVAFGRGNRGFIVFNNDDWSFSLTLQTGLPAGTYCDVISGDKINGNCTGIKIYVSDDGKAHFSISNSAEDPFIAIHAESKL
# [2] = biological target: T1, human pancreatic α-amylase (HPA); test: ITC; format: binding
Km [1] [µM],Kd [2] [µM],Structure (SMILES)
132 ± 6.62,,OC[C@H]1O[C@H](O[C@H]2[C@H](O)[C@@H](O)[C@@H](O[C@H]3[C@H](O)[C@@H](O)[C@@H](O[C@H]4[C@H](O)[C@@H](O)[C@@H](O[C@H]5[C@H](O)[C@@H](O)C(O)O[C@@H]5CO)O[C@@H]4CO)O[C@@H]3CO)O[C@@H]2CO)[C@H](O)[C@@H](O)[C@@H]1O (some centres unmarked) [maltopentaose]
,1.97,"C=CCc1ccc(Oc2cc(CC=C)cc(OC)c2O)c(OC)c1 [DDEB, dehydrodieugenol B]"
